Test [1] has as its system TAA-induced liver fibrotic C57BL/6J mice. Kind of test: Hydroxyproline assay of liver tissue. Conditions: CX groups (20 and 50 mg/kg oral, 6 weeks); vs TAA group. The class given is in vivo. As to the method:
For tests of adlay extracts, mice were randomly divided into the following seven groups (n=6, per group): (1) No treatment group (NT, normal diet), (2) Thioacetamide group (TAA, 200 mg/kg, normal diet), (3) 10% adlay seed powder (ASP) group, (4) 1% adlay leaf powder (ALP) group, (5) 1% adlay seed polysaccharide (ASPS) group, (6) 0.025% adlay seed ethanolic extract (ASE) group and (7) 0.1% ASE group. NT group received pure saline, and other groups intraperitoneally injected with TAA dissolved into saline thrice a week.
For tests of CX, mice were randomly divided into the following four groups (n=8, per group): (1) NT group, (2) TAA group (200 mg/kg), (3) CX group (CX20, 20 mg/kg), and (4) CX group (CX50, 50 mg/kg). NT group received pure saline, and other groups intraperitoneally injected with TAA dissolved into saline thrice a week. Moreover, NT group and TAA group also received 5% propylene glycol, while CX groups received CX dissolved into 5% propylene glycol (prepared in 0.9% saline) by oral gavage once per day. […]
The procedure of hydroxyproline assay is as follows. The hydroxyproline, as an indirect index of the collagen content in the liver, was determined by a hydroxyproline assay kit and the testing procedures followed the manufacturer's protocol. […] The hydroxyproline content was measured at a wavelength of 558 nm on an ELISA reader (TECAN, Switzerland). […]

Test [2] has the same test system. Kind of test: Serum TGF-β1 ELISA. The class given is in vivo. As to conditions: CX groups (20 and 50 mg/kg oral, 6 weeks); vs TAA group. How it is done: For tests of CX, mice were randomly divided into the following four groups (n=8, per group): (1) NT group, (2) TAA group (200 mg/kg), (3) CX group (CX20, 20 mg/kg), and (4) CX group (CX50, 50 mg/kg). NT group received pure saline, and other groups intraperitoneally injected with TAA dissolved into saline thrice a week. Moreover, NT group and TAA group also received 5% propylene glycol, while CX groups received CX dissolved into 5% propylene glycol (prepared in 0.9% saline) by oral gavage once per day.
To examine the effects of CX on liver fibrosis, this example established a TAA-induced liver fibrotic C57BL/6J mouse model. FIG. 6 is a schematic diagram of animal experiment design in 6-methoxybenzoxazolinone (6-MBOA) (CX) groups. For animal experiments, 6-week-old C57BL/6J mice were randomly divided into four groups including NT, TAA, CX20 (TAA+20 mg/kg CX), CX50 (TAA+50 mg/kg CX). (n=8 per group). […]
The procedure of TGF-β1 enzyme-linked immunosorbent assay (ELISA) is as follows. The level of TGF-β1 was detected in serum by using commercial mouse ELISA kits (Invitrogen, USA) and the working procedure was followed a standard sandwich ELISA protocol. […] After reacted with stop solution, immediately measured the color intensity at 450 nm by ELISA reader (TECAN, Switzerland).

One compound from patent publication US20250017907A1, “METHOD FOR PREVENTING AND/OR TREATING LIVER FIBROSIS BY USING 6-METHOXYBENZOXAZOLINONE AND COIX LACHRYMA-JOBI L. EXTRACT COMPRISING 6-METHOXYBENZOXAZOLINONE” (Taichung District Agricultural Research and Extension …, priority 2023, published 2025) can be followed below.

As to `COc1ccc2[nH]c(=O)oc2c1` [CX, 6-methoxybenzoxazolinone], in test [1], the liver hydroxyproline content result is given as “significantly lower”. The “upregulation of TGF-β1 in serum caused by TAA (ELISA)” value in test [2] is given as “significantly reduced”.
